Source: patent publication US6117976A, “Manufacture and use of polypeptides tagged using binding molecules” (Medical Research Council, priority 1993, dated 2000)
“Also recorded” adds a separate entry of the source. Read-outs that look alike come from different tables or passages of the source. No end group written: not given here.

Tests used:
calmodulin [1] = molecular target: T1, calmodulin (Homo sapiens, UniProt P0DP23); details: cited from earlier work
[2] = test system: fluoresceinated TAG-3 peptide; test: Band shift assay of alternative fusion partners with fluoresceinated TAG-3 peptide; type: binding; details: 10 μM fluoresceinated TAG-3, TBSC, High-Density Phast Gel, native
Procedure: 1 μl of purified scFv (D1.3)-CAL (Example 5), scFv(D1.3)-CAL(N-domain), scFv(D1.3)-CAL(C-domain), calmodulin or troponin C were incubated with 10 μM fluoresceinated TAG-3 peptide and 8 μl TBSC. The samples were run on a High-Density Phast Gel (Pharmacia) using native buffer strips, and gel imaged.

calmodulin [3] = molecular target: T1, calmodulin; test: Native gel autoradiography of 2-[125I]-melatonin with calmodulin; type: binding; details: 1 μCi 2-[125I]-melatonin, 15% polyacrylamide gel, 0.5 mM CaCl2, no SDS
Procedure: In order to assess this, 1 μl calmodulin (1 mg/ml) was incubated with 1 μCi 2-[^125 I]-melatonin in 9 μl TBSC and run on a 15% polyacrylamide gel. The gel was as the running gel of Laemmli (Nature 1970 220 680-685), but with 0.5 mM CaCl2 and no SDS in both gel and buffer.

scFv(HyHEL-10)-CAL [4] = type: binding
Procedure: FIG. 8A: Binding of scFv-CAL and MBP-TAG1 detected by surface plasmon resonance (Pharmacia Biacore). 2500 resonance units (RUs) of turkey egg lysozyme (TEL) (Sigma) were immobilized on a microsensor chip of a BIAcore machine (Pharmacia). A solution of […] (5 μg/ml) in TBSC was injected onto the chip (flow rate 5 μl/min), followed by injections of MBP-TAG1 (5 μg/ml), then 20 mM EGTA (to dissociate the complex) and then MBP (New England Biolabs 5 μg/ml).
Thus HEL was immobilised on the microsensor chip, and the chip saturated with scFv(HyHEL-10)-CAL.
(§1) 2500 resonance units (RUs) of turkey egg lysozyme (TEL) (Sigma) were immobilised on a microsensor chip of a BIAcore machine (Pharmacia). A solution of […] (5 μg/ml) in TBSC was injected onto the chip (flow rate 5 μl/min), followed by injections of MBP-TAG1 (5 μg/ml), then 20 mM EGTA (to dissociate the complex) and then MBP (New England Biolabs 5 μg/ml). […] Conditions were as in Example 7 and FIG. 5, except the gel was stained with Coomassie. Lanes: 1, MBP-TAG1 (0.3 mg/ml); 2, scFv (HyHEL10)-CAL (0.08 mg/ml); 3, scFv (HyHEL-10) (0.08 mg/ml)+MBP-TAG1 (0.3 mg/ml).

calmodulin [5] = molecular target: T1, calmodulin; test: Native gel electrophoresis of fluoresceinated TAG peptides with calmodulin; type: binding; details: excess calmodulin, TBS 1 mM CaCl2, 15% native gel
Text: FIGS. 9A and 9B: Fluorescent and Coomassie blue detection of fluorescent peptide/calmodulin complexes. Native gel electrophoresis of calmodulin and fluoresceinated TAG1 (Track 1), calmodulin and fluoresceinated TAG2 (Track 2), calmodulin and fluoresceinated TAG3 (Track 3), and calmodulin and fluoresceinated TAG4 (Track 4). The gel was first imaged on a UV transilluminator and photographed (FIG. 9A) and then stained with Coomassie blue and photographed (FIG. 9B).
For peptide fluoresceination, 1 mg of each peptide was dissolved in 1 ml of 100 mM NaHCO3, pH 8.9. One volume of peptide was mixed with one volume of water and 2 volumes of 2 mM iodoacetamidofluorescein (Molecular Probes Inc.) in dimethylformamide. The reaction was allowed to proceed for 15 minutes then quenched by adding dithiothreitol to 10 mM final concentration. The fluoresceinated peptides were separated from unreacted fluorescein using a Millipore MEM-SEP cartridge column (TBS=loading and wash buffer; TBS+0.5 M NaCl=elution buffer).
A 20 μl reaction was set up containing ca. 0.4 μg of fluoresceinated peptide and 18 μg of calmodulin (Sigma) in TBS containing 1 mM CaCl2 (TBS is 50 mM Tris-HCl, pH 7.4, 100 mM NaCl in water).

scFv(HyHEL-10)-CAL [6] = test: Native Phast gel analysis of scFv(HyHEL-10)-CAL and MBP-TAG1 interaction; type: binding
Procedure: FIG. 8B: Homogeneous 20 Native Phast Gel (Pharmacia) for the analysis of scFv(HyHEL-10)-CAL and MBP-TAG1 interaction. Conditions as in FIG. 5, except the gel was stained with Coomassie. Lanes: 1, MBP-TAG1 (0.3 mg/ml); 2, scFv (HyHEL-10)-CAL (0.08 mg/ml); 3, scFv (HyHEL-10) (0.08 mg/ml)+MBP-TAG1 (0.3 mg/ml).
as §1

[7] = in vivo; cited from earlier work
calmodulin [8] = molecular target: T1, calmodulin; details: 600 nM calmodulin, 50 nM fluorescein-labeled TAG3, 7 μM unlabelled peptide, on ice, up to 4 hrs
Procedure: 600 nM calmodulin was pre-mixed in TBSC and 10% sucrose with 50 nM fluorescein-labeled TAG3 peptide. Aliquots were incubated on ice with a large excess (7 μM) unlabeled peptide for 0, 0.5, 1, 2, and 4 hrs, and analysed on a native 15% polyacrylamide gel (as in Laemmli, 1970 supra except with CaCl2 to 1 MM) in a Hoefer Mighty Small apparatus, and imaged with a cooled CCD-camera based fluorescent gel imaging system developed in collaboration with Confocal Technologies (Liverpool, UK) and Digital Pixel (Brighton, UK).
600 nM calmodulin was pre-mixed in TBSC and 10% sucrose with 50 nM fluorescein-labeled TAG3 peptide. Aliquots were incubated on ice with a large excess (7 μM) unlabelled peptide for 0, 0.5, 1, 2, and 4 hrs, and analysed on a native 15% polyacrylamide gel (as in Carr & Scott, 1992 supra) except with CaCl2 to 1 mM) in a Hoefer Mighty Small apparatus, and imaged with a cooled CCD-camera based fluorescent gel imaging system developed in collaboration with Confocal Technologies (Liverpool, UK) and Digital Pixel (Brighton, UK).

[9] = Table 1, affinities of calmodulin-binding peptides

## INLKALAALAKKIL-NH2 [Mastoparan]
Calmodulin [1]; [9]
  Kd: 0.3 nM
Calmodulin [1]; association constant for calmodulin
  Ka: 3.3e+09 M⁻¹
Calmodulin [1]; binding to calmodulin, Malencik and Anderson, 1983
  Kd: 0.3 nM

## troponin C
[2]
  complex formation with TAG-3 (fluorescent band): observed; also recorded: binds well

## IKPAKRMKFKTVCYLLVQLMHCRKMFKA-NH2 [AC-28]
Calmodulin [1]; [9]
  Kd: 2 nM

## COc1ccc2[nH]c([125I])c(CCNC(C)=O)c2c1 [2-[^125 I]-melatonin]
Calmodulin [3]
  detection of calmodulin-melatonin complex on gel (radioactive band): no radioactive band was detected

## KRRAIGFKKLAEAVKFSAKLMGQAMAKRVK-NH2 [NO-30]
Calmodulin [1]; [9]
  Kd: 2 nM

## QILWFRGLNRIQTQIRVVNAFRSS-NH2 [Ca++ pump]
Calmodulin [1]; [9]
  Kd: 10 nM

## maltose binding protein [MBP]
scFv(HyHEL-10)-CAL [4]
  binding to chip saturated with scFv(HyHEL-10)-CAL: not

## C-EIKRAAA-INLKALAALAKKIL-IK-OH [TAG 4]
Calmodulin [5]
  peptide-calmodulin complex formation (comigration of fluorescent and coomassie bands): stable complex with calmodulin

## MBP-TAG1: maltose binding protein with the TAG1 peptide appended at the C-terminus (CEIKRAAAINLKALAALAKKIL)
scFv(HyHEL-10)-CAL [4]; 5 μg/ml in TBSC
  binding to chip saturated with scFv(HyHEL-10)-CAL: shown to bind to the chip
scFv(HyHEL-10)-CAL [4]; 20 mM EGTA
  dissociation of bound protein by EGTA: could be dissociated by addition of EGTA
scFv(HyHEL-10)-CAL [6]
  stable complex with scFv calmodulin fusion by gel electrophoresis: form a stable complex

## COc1ccc2[nH]cc(CCNC(C)=O)c2c1 [Melatonin, melatonin]
Calmodulin [3]
  detection of calmodulin-melatonin complex on gel (radioactive band): no complex is detected on band shift assays

## calmodulin
[7]
  excretion: rapidly excreted in the urine
  immunogenicity: poorly immunogenic
  organ accumulation: does not accumulate selectively in any organ
  toxicity: not toxic
[2]
  complex formation with TAG-3 (fluorescent band): observed

## C-EIKRAAA-INLKALAALAKKIL-OH [TAG 2]
Calmodulin [5]
  peptide-calmodulin complex formation (comigration of fluorescent and coomassie bands): stable complex with calmodulin

## C-EIKRAAA-INLKALAALAKKIL-IKRKRQQ-NH2 [TAG 3]
Calmodulin [5]
  peptide-calmodulin complex formation (comigration of fluorescent and coomassie bands): the upper of these that has bound peptide
Calmodulin [8]
  displacement of fluorescent peptide from calmodulin by unlabelled peptide: not significantly displaced from the calmodulin even after four hours competition

## C-EIKRAAA-INLKALAALAKKIL-NH2 (CEIKRAAAINLKALAALAKKIL-NH2) [TAG 1]
Calmodulin [5]
  peptide-calmodulin complex formation (comigration of fluorescent and coomassie bands): stable complex with calmodulin
